Measurements reported in paper PMC4007625, “A phase I study of AST1306, a novel irreversible EGFR and HER2 kinase inhibitor, in patients with advanced solid tumors” (Journal of Hematology & Oncology, 2014).

Assays:
EGFR = tested on: EGFR; design: method as in PMID 21789172, PMID 18408761, PMID 15728811, PMID 15737014, PMID 17085664; settings: cited from earlier work
[1] = tested on: human tumor xenograft models that expressed or overexpressed HER family members; design: method as in PMID 21789172; settings: especially HER2 overexpression or EGFR T790M mutant tumors; cited from earlier work
[2] = Phase I dose escalation: safety, tolerability, DLT and MTD (CTC-AE 4.03); type: in vivo
Experimental: This was the first-in-human phase I dose-escalation study of AST1306 for patients with advanced solid tumors. AST1306 was orally administered without food for one day followed by two days off to evaluate single dose PK profiles. After that, it was continuously administered for 21 days and two days off to assess multiple dose PK profiles and safety. […] Three times daily in three dose levels (800 mg TID, 1000 mg TID and 1200 mg TID) were explored subsequently. Treatment was then repeated at the same dose level in 28-day cycles until unacceptable toxicities, disease progression or the patient’s withdrew from the study. PK extension study was performed to enroll additional patients up to at least eight patients per dose cohort in three dose levels (MTD, one or two doses level lower than the MTD) for further evaluation of PK profiles.
Safety and tolerability were evaluated and assessed by investigators throughout the study and up to 14 days after the final dose of AST1306 according to Common Terminology Criteria for Adverse Events (CTC-AE) version 4.03. Laboratory evaluations and electrocardiogram were conducted at screening; every week of first and second cycles; every two weeks of third cycle and every four weeks of subsequent cycles. AEs assessment, vital signs, physical examinations and echocardiography were performed.
A modified Fibonacci 3 plus 3 dose-escalation design was employed. Tolerability was evaluated according to the type and frequency of DLTs observed from single-day-dose administration until day 21 of the first cycle of continuous dosing. DLTs were defined as follows: grade ≥ 3 non-hematologic toxicity (except nausea, vomiting and diarrhea); grade ≥ 3 nausea, vomiting or diarrhea uncontrollable with standard supportive care; grade 4 neutropenia or febrile neutropenia; and grade 4 thrombocytopenia or bleeding requiring a platelet transfusion. If two or more patients experienced DLTs in three to six patients for each cohort, dose escalation was terminated and the dose level below was defined as the MTD.
Dose interruptions were permitted for no more than 14 days for patients experiencing DLTs in the first cycle or intolerable toxicities in the subsequent cycles, with treatment resumed at the next lower dose level upon adequate recovery (grade ≤ 1). More than two dose level reductions were not allowed.
Patients in the PK extension study and food-effect study were also included to evaluate safety further.

For `C=CC(=O)Nc1ccc2ncnc(Nc3ccc(OCc4cccc(F)c4)c(Cl)c3)c2c1` [AST1306], the “fold more potent than afatinib and dacomitinib” value (EGFR; EGFR and HER2 IC50) is listed as 5-15 fold, the IC50 (EGFR; preclinical, read-out: IC50 inhibiting EGFR) is listed as 0.5 nM and the “antitumor activity in xenograft models” value [1] is listed as “showed antitumor activities”. The MTD ([2]; TID, continuous-dosing schedule, oral) was 1000 mg, the “Anorexia grade 3, treatment-related AE, patients” value ([2]; human, in vivo) was 0 and the “Fatigue grade 3, treatment-related AE, % of patients” value ([2]; human, in vivo) was 0%. The “Fatigue grade 3, treatment-related AE, patients” value ([2]; human, in vivo) was 0, the “Hand-foot syndrome grade 3, treatment-related AE, % of patients” value ([2]; human, in vivo) was 0% and the “Hand-foot syndrome grade 3, treatment-related AE, patients” value ([2]; human, in vivo) was 0. For the same molecule, the “Proteinuria grade 3, treatment-related AE, % of patients” value ([2]; human, in vivo) was 0%, the “Proteinuria grade 3, treatment-related AE, patients” value ([2]; human, in vivo) was 0 and the “Vomiting grade 3, treatment-related AE, % of patients” value ([2]; human, in vivo) was 0%. The “Vomiting grade 3, treatment-related AE, patients” value ([2]; human, in vivo) was 0, the “discontinuation from treatment due to diarrhea, % of patients” value ([2]; human, in vivo) was 7% and the “discontinuation from treatment due to diarrhea, patients” value ([2]; human, in vivo) was 5. For the same molecule, the “discontinuation from treatment due to hypokalemia, patients” value ([2]; human, in vivo) was 1, the “grade 3 drug-related abdominal pain, % of patients” value ([2]; human, in vivo) was 1.4% and the “grade 3 drug-related abdominal pain, patients” value ([2]; human, in vivo) was 1. For the same molecule, the “grade 3 drug-related anemia, % of patients” value ([2]; human, in vivo) was 1.4%, the “grade 3 drug-related anemia, patients” value ([2]; human, in vivo) was 1 and the “grade 3 drug-related diarrhea, % of patients” value ([2]; human, in vivo) was 32.4%. The “grade 3 drug-related diarrhea, patients” value ([2]; human, in vivo) was 23, the “grade 3 drug-related elevated ALT or AST, % of patients” value ([2]; human, in vivo) was 4.2% and the “grade 3 drug-related elevated ALT or AST, patients” value ([2]; human, in vivo) was 3. For the same molecule, the “grade 3 drug-related hypokalemia, % of patients” value ([2]; human, in vivo) was 1.4%, the “grade 3 drug-related hypokalemia, patients” value ([2]; human, in vivo) was 1 and the “grade 3 drug-related rash, % of patients” value ([2]; human, in vivo) was 1.4%. For the same molecule, the “grade 3 drug-related rash, patients” value ([2]; human, in vivo) was 1, the “grade 3 study drug-related AEs, % of patients” value ([2]; human, in vivo) was 39.4% and the “grade 3 study drug-related AEs, patients” value ([2]; human, in vivo) was 28. For the same molecule, the “grade 4 to 5 AEs” value ([2]; human, in vivo) was “no observed grade 4 to 5 AEs”, the “patients with serious AEs (SAE)” value ([2]; human, in vivo) was 8 and the “treatment-related diarrhea, % of patients” value ([2]; human, in vivo) was 85.9%. The “treatment-related diarrhea, patients” value ([2]; human, in vivo) was 61, the “treatment-related fatigue, % of patients” value ([2]; human, in vivo) was 19.7% and the “treatment-related fatigue, patients” value ([2]; human, in vivo) was 14. For the same molecule, the “treatment-related rash, % of patients” value ([2]; human, in vivo) was 16.9%, the “treatment-related rash, patients” value ([2]; human, in vivo) was 12 and the “patients with DLT (grade 3 diarrhea)” value ([2]; human, in vivo, 21 days) was 5. For the same molecule, the “recommended phase II dose (RP2D)” value ([2]; human, in vivo, po, 21 days) was 1000 mg, the “decline in LVEF” value ([2]; in vivo) was “no significant decline in LVEF” and the “patients with dose reductions (all due to diarrhea)” value ([2]; in vivo) was “Seven”. For the same molecule, the “patients with study drug-related AEs” value ([2]; in vivo) was “Sixty-eight”.
